# Measured values taken from patent publication US8691865B2 (AbbVie Inc., priority 2008, dated 2014).
# Molecular target: human Cav2.2 (Homo sapiens, UniProt Q00975)
# Assay: Assessment of calcium channel activity using FLIPR (Ca2+ influx in IMR32 cells)
# Assay type: cell-based
# Conditions: not given
# Procedure, shortened: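 IC50 values derive from nonlinear sigmoidal fitting of percent inhibition, relative to inhibitor-free activity, of Ca2+ influx read by FLIPR. Cells were IMR32 human neuroblastoma, plated at 1−1.2×10^5 per well and grown 48 h at 37 °C.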
# Chain of human Cav2.2 (Q00975 whole entry): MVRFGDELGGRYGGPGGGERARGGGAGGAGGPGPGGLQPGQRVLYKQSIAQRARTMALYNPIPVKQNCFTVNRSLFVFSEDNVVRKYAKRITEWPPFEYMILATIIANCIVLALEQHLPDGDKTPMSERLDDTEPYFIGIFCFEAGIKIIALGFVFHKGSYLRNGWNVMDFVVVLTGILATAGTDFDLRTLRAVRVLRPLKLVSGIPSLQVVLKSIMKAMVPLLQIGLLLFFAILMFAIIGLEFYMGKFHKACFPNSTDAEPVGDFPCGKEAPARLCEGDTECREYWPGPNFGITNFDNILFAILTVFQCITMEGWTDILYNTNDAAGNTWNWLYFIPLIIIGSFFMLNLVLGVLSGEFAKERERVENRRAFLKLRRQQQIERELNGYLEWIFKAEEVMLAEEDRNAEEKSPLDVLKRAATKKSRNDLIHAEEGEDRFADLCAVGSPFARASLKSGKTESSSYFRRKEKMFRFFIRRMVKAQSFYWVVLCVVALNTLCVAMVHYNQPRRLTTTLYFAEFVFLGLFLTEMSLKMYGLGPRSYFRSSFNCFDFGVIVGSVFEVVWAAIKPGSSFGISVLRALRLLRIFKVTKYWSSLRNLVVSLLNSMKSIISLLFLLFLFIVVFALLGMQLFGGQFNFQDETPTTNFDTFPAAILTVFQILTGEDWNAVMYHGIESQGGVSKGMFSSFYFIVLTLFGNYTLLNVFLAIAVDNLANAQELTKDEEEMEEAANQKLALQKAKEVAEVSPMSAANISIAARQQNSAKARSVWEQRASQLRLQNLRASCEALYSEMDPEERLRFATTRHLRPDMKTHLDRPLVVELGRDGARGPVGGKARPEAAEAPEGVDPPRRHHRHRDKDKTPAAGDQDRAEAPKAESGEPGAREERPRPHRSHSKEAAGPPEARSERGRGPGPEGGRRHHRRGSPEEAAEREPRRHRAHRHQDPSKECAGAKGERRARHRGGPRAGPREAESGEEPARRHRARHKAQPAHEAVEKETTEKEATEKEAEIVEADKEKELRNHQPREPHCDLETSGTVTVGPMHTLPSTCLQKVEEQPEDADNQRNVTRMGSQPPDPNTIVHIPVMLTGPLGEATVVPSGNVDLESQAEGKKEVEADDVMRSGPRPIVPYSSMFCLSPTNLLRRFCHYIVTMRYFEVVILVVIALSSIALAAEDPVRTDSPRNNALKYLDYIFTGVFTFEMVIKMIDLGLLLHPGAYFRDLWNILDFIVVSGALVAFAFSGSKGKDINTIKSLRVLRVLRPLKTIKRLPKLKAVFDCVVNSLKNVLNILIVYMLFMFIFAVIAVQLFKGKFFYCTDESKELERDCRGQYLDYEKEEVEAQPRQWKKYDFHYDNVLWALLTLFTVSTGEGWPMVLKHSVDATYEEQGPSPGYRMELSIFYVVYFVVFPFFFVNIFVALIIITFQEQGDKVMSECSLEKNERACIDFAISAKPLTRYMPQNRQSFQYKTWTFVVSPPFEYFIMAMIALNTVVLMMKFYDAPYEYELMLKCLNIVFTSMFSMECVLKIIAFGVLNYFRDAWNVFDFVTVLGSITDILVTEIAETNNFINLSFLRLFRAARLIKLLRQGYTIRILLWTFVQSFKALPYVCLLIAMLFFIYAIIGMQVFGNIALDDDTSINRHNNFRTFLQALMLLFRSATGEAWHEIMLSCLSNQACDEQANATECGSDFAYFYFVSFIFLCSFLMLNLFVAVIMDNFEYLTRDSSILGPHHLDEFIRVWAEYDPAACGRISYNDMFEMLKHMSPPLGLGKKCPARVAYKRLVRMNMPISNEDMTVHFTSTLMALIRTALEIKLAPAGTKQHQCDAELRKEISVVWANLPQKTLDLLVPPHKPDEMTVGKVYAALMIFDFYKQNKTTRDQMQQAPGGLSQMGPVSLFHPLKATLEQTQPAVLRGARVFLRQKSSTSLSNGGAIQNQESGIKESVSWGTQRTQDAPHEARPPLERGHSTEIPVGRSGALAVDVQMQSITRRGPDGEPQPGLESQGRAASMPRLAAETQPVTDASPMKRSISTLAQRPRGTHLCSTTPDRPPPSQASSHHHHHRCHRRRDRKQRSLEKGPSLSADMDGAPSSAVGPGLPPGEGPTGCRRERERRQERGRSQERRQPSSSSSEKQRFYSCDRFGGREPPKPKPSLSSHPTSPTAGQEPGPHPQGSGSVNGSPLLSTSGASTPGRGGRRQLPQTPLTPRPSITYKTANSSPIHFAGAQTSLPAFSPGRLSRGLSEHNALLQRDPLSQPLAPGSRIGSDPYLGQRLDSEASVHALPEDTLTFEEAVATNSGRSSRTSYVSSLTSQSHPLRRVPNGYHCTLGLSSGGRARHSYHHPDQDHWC
# Chain of human Cav2.2 (P54289 25-956 partner limits assumed): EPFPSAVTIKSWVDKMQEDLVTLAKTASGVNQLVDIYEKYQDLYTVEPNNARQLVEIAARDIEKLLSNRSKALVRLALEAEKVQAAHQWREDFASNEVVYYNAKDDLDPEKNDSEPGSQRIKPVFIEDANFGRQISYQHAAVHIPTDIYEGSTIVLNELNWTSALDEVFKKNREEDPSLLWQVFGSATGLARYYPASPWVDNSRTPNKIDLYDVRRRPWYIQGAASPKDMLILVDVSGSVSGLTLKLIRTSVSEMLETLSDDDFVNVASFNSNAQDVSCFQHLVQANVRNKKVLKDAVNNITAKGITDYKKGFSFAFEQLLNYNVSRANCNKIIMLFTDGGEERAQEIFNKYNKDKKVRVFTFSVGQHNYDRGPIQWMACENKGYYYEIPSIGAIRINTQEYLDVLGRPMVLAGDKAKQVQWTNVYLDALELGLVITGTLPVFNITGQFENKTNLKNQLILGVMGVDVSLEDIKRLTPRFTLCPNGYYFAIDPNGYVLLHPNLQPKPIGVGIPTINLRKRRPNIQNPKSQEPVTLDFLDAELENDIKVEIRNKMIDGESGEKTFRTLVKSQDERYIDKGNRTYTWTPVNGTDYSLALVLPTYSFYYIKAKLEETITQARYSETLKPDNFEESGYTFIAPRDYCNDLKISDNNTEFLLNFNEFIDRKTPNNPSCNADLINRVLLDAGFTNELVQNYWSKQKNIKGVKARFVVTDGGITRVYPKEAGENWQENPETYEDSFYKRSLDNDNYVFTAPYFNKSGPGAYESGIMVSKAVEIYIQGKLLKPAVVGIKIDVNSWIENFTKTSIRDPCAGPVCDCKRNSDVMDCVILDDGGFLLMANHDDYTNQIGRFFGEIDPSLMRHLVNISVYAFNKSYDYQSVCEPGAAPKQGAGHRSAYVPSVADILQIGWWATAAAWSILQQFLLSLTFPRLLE
# Chain of human Cav2.2 (P54289 957-1103 partner limits assumed): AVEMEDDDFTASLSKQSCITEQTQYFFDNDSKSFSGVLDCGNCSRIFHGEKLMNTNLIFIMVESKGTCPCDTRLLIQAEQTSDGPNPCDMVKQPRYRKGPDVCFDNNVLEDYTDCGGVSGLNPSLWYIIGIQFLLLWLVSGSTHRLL
# Chain of human Cav2.2 (P54284 whole entry partner): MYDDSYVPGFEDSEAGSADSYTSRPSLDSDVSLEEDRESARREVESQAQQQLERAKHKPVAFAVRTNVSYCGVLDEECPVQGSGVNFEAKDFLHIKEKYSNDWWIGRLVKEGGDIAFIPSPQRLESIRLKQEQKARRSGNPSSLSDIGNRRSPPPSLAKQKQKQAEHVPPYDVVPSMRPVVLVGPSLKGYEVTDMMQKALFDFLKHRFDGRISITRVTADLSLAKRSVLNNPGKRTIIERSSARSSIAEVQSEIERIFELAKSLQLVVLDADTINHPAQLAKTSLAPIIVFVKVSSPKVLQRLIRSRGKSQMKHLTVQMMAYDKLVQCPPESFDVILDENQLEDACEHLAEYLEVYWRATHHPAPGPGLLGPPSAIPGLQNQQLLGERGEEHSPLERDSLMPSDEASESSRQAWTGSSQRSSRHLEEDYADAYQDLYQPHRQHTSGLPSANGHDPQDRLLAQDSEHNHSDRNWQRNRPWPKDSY
row,Compound,IC50
1,"O=C(N[C@H]1CC[C@H]2CN(Cc3cccc(F)c3)C[C@H]21)C(C1CCCCC1)C1CCCCC1 [Example 64, 2,2-dicyclohexyl-N-[(3aS,4S,6aR)-2-(3-fluorobenzyl)octahydrocyclopenta[c]pyrrol-4-yl]acetamide]",0.99 µM
2,"O=S(=O)(N[C@H]1CC[C@@H]2CN(c3cccc(C(F)(F)F)n3)C[C@@H]21)c1ccccc1F [Example 703, 2-fluoro-N-{(3aR,4S,6aS)-2-[6-(trifluoromethyl)pyridin-2-yl]octahydrocyclopenta[c]pyrrol-4-yl}benzenesulfonamide]",3.17 µM
3,"O=S(=O)(c1cccc(C(F)(F)F)c1)N1C[C@H]2CC[C@H](NCc3cc4cc(F)ccc4[nH]3)[C@H]2C1 [Example 650, (3aR,4S,6aS)-N-[(5-fluoro-1H-indol-2-yl)methyl]-2-{[3-(trifluoromethyl)phenyl]sulfonyl}octahydrocyclopenta[c]pyrrol-4-amine]",0.59 µM
4,"Fc1ccc2[nH]c(CN[C@H]3CC[C@@H]4CN(c5ccc(C(F)(F)F)cn5)C[C@@H]43)cc2c1 [Example 614, (3aR,4S,6aS)-N-[(5-fluoro-1H-indol-2-yl)methyl]-2-[5-(trifluoromethyl)pyridin-2-yl]octahydrocyclopenta[c]pyrrol-4-amine]",3.33 µM
5,"O=C(N[C@@H]1CC[C@H]2CN(CCCCCC(c3ccc(F)cc3)c3ccc(F)cc3)C[C@H]21)C(C1CCCCC1)C1CCCCC1 [Example 78, N-{(3aS,4R,6aR)-2-[6,6-bis(4-fluorophenyl)hexyl]octahydrocyclopenta[c]pyrrol-4-yl}-2,2-dicyclohexylacetamide]",1.34 µM
6,"CN[C@@H](CC(C)C)C(=O)N[C@H]1CC[C@@H]2CN(c3ccccc3C)C[C@@H]21 [Example 630, N^2-methyl-N-[(3aR,4S,6aS)-2-(2-methylphenyl)octahydrocyclopenta[c]pyrrol-4-yl]-L-leucinamide]",3.34 µM
7,"CCC[C@H](N)C(=O)N[C@H]1CC[C@@H]2CN(S(=O)(=O)c3ccc(C(F)(F)F)cc3)C[C@@H]21 [Example 422, N^1-((3aR,4S,6aS)-2-{[4-(trifluoromethyl)phenyl]sulfonyl}octahydrocyclopenta[c]pyrrol-4-yl)-L-norvalinamide]",7.83 µM
8,"CCCC[C@H](NC)C(=O)N[C@H]1CC[C@@H]2CN(Cc3ccccc3)C[C@@H]21 [Example 362, N^1-[(3aR,4S,6aS)-2-benzyloctahydrocyclopenta[c]pyrrol-4-yl]-N^2-methyl-L-norleucinamide]",> 30 µM
9,"O=S(=O)(N[C@H]1CC[C@@H]2CN(c3cccc(C(F)(F)F)n3)C[C@@H]21)c1ccccc1 [Example 708, N-{(3aR,4S,6aS)-2-[6-(trifluoromethyl)pyridin-2-yl]octahydrocyclopenta[c]pyrrol-4-yl}benzenesulfonamide]",3.35 µM
10,"CN[C@@H](CC(C)C)C(=O)N[C@H]1CC[C@@H]2CN(c3ccc(OC(F)(F)F)c(F)c3)C[C@@H]21 [Example 657, N-{(3aR,4S,6aS)-2-[3-fluoro-4-(trifluoromethoxy)phenyl]octahydrocyclopenta[c]pyrrol-4-yl}-N^2-methyl-L-leucinamide]",1.8 µM
11,"Cc1ccc(-c2n[nH]cc2CN[C@H]2CC[C@@H]3CN(c4cccc(C(F)(F)F)n4)C[C@@H]32)cc1 [Example 673, (3aR,4S,6aS)-N-{[3-(4-methylphenyl)-1H-pyrazol-4-yl]methyl}-2-[6-(trifluoromethyl)pyridin-2-yl]octahydrocyclopenta[c]pyrrol-4-amine]",0.74 µM
12,"O=C(N[C@H]1CC[C@@H]2CN(c3ccccc3Cl)C[C@@H]21)[C@@H]1C[C@@H](F)CN1 [Example 659, (4R)-N-[(3aR,4S,6aS)-2-(2-chlorophenyl)octahydrocyclopenta[c]pyrrol-4-yl]-4-fluoro-L-prolinamide]",6.85 µM
13,"CN[C@@H](CC(C)C)C(=O)N[C@H]1CC[C@@H]2CN(c3cc(F)ccc3C(F)F)C[C@@H]21 [Example 770, N-{(3aR,4S,6aS)-2-[2-(difluoromethyl)-5-fluorophenyl]octahydrocyclopenta[c]pyrrol-4-yl}-N^2-methyl-L-leucinamide]",0.75 µM
14,"CN[C@@H](CC(C)C)C(=O)N[C@H]1CC[C@@H]2CN(c3ccc(F)c(OC(F)(F)F)c3)C[C@@H]21 [Example 772, N-{(3aR,4S,6aS)-2-[4-fluoro-3-(trifluoromethoxy)phenyl]octahydrocyclopenta[c]pyrrol-4-yl}-N^2-methyl-L-leucinamide]",1.08 µM
15,"O=S(=O)(c1ccc(C(F)(F)F)cc1)N1C[C@H]2CC[C@H](NCc3cc4cc(F)ccc4[nH]3)[C@H]2C1 [Example 654, (3aR,4S,6aS)-N-[(5-fluoro-1H-indol-2-yl)methyl]-2-{[4-(trifluoromethyl)phenyl]sulfonyl}octahydrocyclopenta[c]pyrrol-4-amine]",0.82 µM
16,"CC(C)C[C@@H](C(=O)N[C@@H]1CC[C@H]2CN(S(C)(=O)=O)C[C@H]21)N1CCCC1 [Example 346, (2S)-4-methyl-N-[(3aS,4R,6aR)-2-(methylsulfonyl)octahydrocyclopenta[c]pyrrol-4-yl]-2-pyrrolidin-1-ylpentanamide]",> 30 µM
17,"CCC[C@H](NC)C(=O)N[C@H]1CC[C@@H]2CN(Cc3ccccc3)C[C@@H]21 [Example 365, N^1-[(3aR,4S,6aS)-2-benzyloctahydrocyclopenta[c]pyrrol-4-yl]-N^2-methyl-L-norvalinamide]",> 30 µM
18,"CN(C)[C@@H](CC1CC1)C(=O)N[C@H]1CC[C@@H]2CN(c3ccc(OC(F)(F)F)cc3)C[C@@H]21 [Example 777, 3-cyclopropyl-N^2,N^2-dimethyl-N-{(3aR,4S,6aS)-2-[4-(trifluoromethoxy)phenyl]octahydrocyclopenta[c]pyrrol-4-yl}-L-alaninamide]",2.16 µM
19,"FC(F)(F)c1cccc(N2C[C@H]3CC[C@H](NCc4cn[nH]c4)[C@H]3C2)n1 [Example 696, (3aR,4S,6aS)-N-(1H-pyrazol-4-ylmethyl)-2-[6-(trifluoromethyl)pyridin-2-yl]octahydrocyclopenta[c]pyrrol-4-amine]",3.52 µM
20,"N[C@H]1CC[C@@H]2CN(c3cccc(C(F)(F)F)c3)C[C@@H]21 [Example 605, (3aR,4S,6aS)-2-[3-(trifluoromethyl)phenyl]octahydrocyclopenta[c]pyrrol-4-amine]",4.33 µM

# Same assay, conditions: read-out: IC50 (μM) or percent inhibition (* indicates 3 minute incubation, otherwise 60 minute); IC50; 60 minute pre-incubation with compound; IMR32 cells, 80 mM KCl depolarization
row,Compound,IC50
1,"CC(C)C(C(=O)N[C@H]1CC[C@@H]2CN(Cc3ccccc3F)C[C@@H]21)c1ccccc1 (stereo partly drawn) [Example 85, N-[(3aR,4S,6aS)-2-(2-fluorobenzyl)octahydrocyclopenta[c]pyrrol-4-yl]-3-methyl-2-phenylbutanamide]",3.59 µM
2,"(3aR,4S,6aS)-N-[(5-fluoro-1-methyl-1H-indol-2-yl)methyl]-2-[6-(trifluoromethyl)pyridin-2-yl]octahydrocyclopenta[c]pyrrol-4-amine [Example 748]",0.81 µM
3,"CCC[C@H](NC)C(=O)N[C@H]1CC[C@@H]2CN(Cc3ccc(C(F)(F)F)cc3)C[C@@H]21 [Example 377, N^2-methyl-N^1-{(3aR,4S,6aS)-2-[4-(trifluoromethyl)benzyl]octahydrocyclopenta[c]pyrrol-4-yl}-L-norvalinamide]",13.3 µM
4,"CC(C)N[C@@H](CC1CCCCC1)C(=O)N[C@H]1CC[C@@H]2CN(S(=O)(=O)c3ccc(C(F)(F)F)cc3)C[C@@H]21 [Example 485, 3-cyclohexyl-N^2-isopropyl-N^1-((3aR,4S,6aS)-2-{[4-(trifluoromethyl)phenyl]sulfonyl}octahydrocyclopenta[c]pyrrol-4-yl)-L-alaninamide]",1.49 µM
5,"N^1-[(3aR,4S,6aS)-2-(4-fluorobenzyl)octahydrocyclopenta[c]pyrrol-4-yl]-N^2-methyl-L-norvalinamide [Example 378]",> 30 µM
6,"O=S(=O)(N[C@H]1CC[C@H]2CN(Cc3cccc(C(F)(F)F)c3)C[C@H]21)c1cccc(C(F)(F)F)c1 (relative stereo) [Example 185, 3-(trifluoromethyl)-N-{(3aS*,4S*,6aR*)-2-[3-(trifluoromethyl)benzyl]octahydrocyclopenta[c]pyrrol-4-yl}benzenesulfonamide]",0.91 µM
7,"O=C(N[C@@H]1CC[C@H]2CN(CCC(c3ccc(F)cc3)c3ccc(F)cc3)C[C@H]21)C(C1CCCCC1)C1CCCCC1 [Example 80, N-{(3aS,4R,6aR)-2-[3,3-bis(4-fluorophenyl)propyl]octahydrocyclopenta[c]pyrrol-4-yl}-2,2-dicyclohexylacetamide]",1.67 µM
8,"O=C(N[C@@H]1CC[C@H]2CN(Cc3cc(C(F)(F)F)cc(C(F)(F)F)c3)C[C@H]21)C(C1CCCCC1)C1CCCCC1 [Example 77, N-{(3aS,4R,6aR)-2-[3,5-bis(trifluoromethyl)benzyl]octahydrocyclopenta[c]pyrrol-4-yl}-2,2-dicyclohexylacetamide]",9.36 µM
9,"O=C(N[C@@H]1CC[C@H]2CN(CCC(c3ccccc3)c3ccccc3)C[C@H]21)C(C1CCCCC1)C1CCCCC1 [Example 79, 2,2-dicyclohexyl-N-[(3aS,4R,6aR)-2-(3,3-diphenylpropyl)octahydrocyclopenta[c]pyrrol-4-yl]acetamide]",0.94 µM
10,"CN[C@@H](CC(C)C)C(=O)N[C@H]1CC[C@H]2CN(Cc3cccc(C(F)(F)F)c3)C[C@H]21 [Example 164, N^2-methyl-N^1-{(3aS,4S,6aR)-2-[3-(trifluoromethyl)benzyl]octahydrocyclopenta[c]pyrrol-4-yl}-L-leucinamide]",1.64 µM
11,"CCC[C@H](NC)C(=O)N[C@H]1CC[C@@H]2CN(S(=O)(=O)c3ccc(OC)cc3)C[C@@H]21 [Example 537, N^1-{(3aR,4S,6aS)-2-[(4-methoxyphenyl)sulfonyl]octahydrocyclopenta[c]pyrrol-4-yl}-N^2-methyl-L-norvalinamide]",11.3 µM
12,"CC(C)C[C@H](NS(C)(=O)=O)C(=O)N[C@@H]1CC[C@H]2CN(Cc3ccccc3)C[C@H]21 [Example 243, N^1-[(3aS,4R,6aR)-2-benzyloctahydrocyclopenta[c]pyrrol-4-yl]-N^2-(methylsulfonyl)-L-leucinamide]",8.58 µM
